Data published in patent US20260008752A1, “POLYMORPHIC FORMS OF FLORBETAPIR PRECURSOR AV-105” (ELI LILLY AND COMPANY, priority 2022, published 2026).
Values after ≈ are worked out from the molar mass of the structure shown.

Columns and labels:
Assay type in all cases: physicochemical
[1] = Equilibrium solubility, gravimetric, from slurry supernatants; conditions: thermodynamic from solid
Experimental: Measured aliquots of supernatants isolated from the solids were placed in pre-weighed TGA pans for evaporation.
(§1) Unless otherwise specified, solids of AV-105 were composed of Form A and were agitated in specified solvents at specified temperatures. Solvents were replaced after approximately 24 hours, where possible. After ˜2 weeks, solids were separated from supernatants via centrifugation with filtration and analyzed by XRPD. Solubilities were evaluated as a single, small scale measurement via gravimetric method using supernatants separated from the solids. Organic solvents used are anhydrous. […] Approximate solvent ratios are expressed in % by volume. Temperatures and duration of experiments are approximate.

[2] = Long term slurry experiments (solid form by XRPD after ~2 weeks)
Experimental: Samples of starting material were suspended in specified solvents and triturated at specified temperatures. After approximately 24 hours, suspensions were transferred into Spin-X centrifuge tubes equipped with solids 0.45-μm nylon filters and centrifuged. Solids separated were resuspended in fresh solvents and the agitation was continued for a total of 2 weeks. Solids were isolated as described above and analyzed by XRPD.
as §1

[3] = Differential scanning calorimetry (heat-of-fusion rule); conditions: at all temperatures; forms monotropically related
Experimental: (onset) with a heat of fusion of 78.9 J/g (FIG. 4). […] This is consistent with the screen findings, where conversion of Form A into Form B has been observed in a wide temperature range, between 2-8° C. and 45° C.

Question: With Cc1ccc(S(=O)(=O)OCCOCCOCCOc2ccc(/C=C/c3ccc(N(C)C(=O)OC(C)(C)C)cc3)cn2)cc1 [AV-105] as the molecule, how does the solubility ([1]; ACN/water 50/50 slurry supernatant, aqueous with cosolvent or surfactant or cyclodextrin, ACN/water 50/50, Aw 0.90, RT, solid Form B) read?
Answer: Its solubility is 2 mg/mL (≈ 3.26 mM).

Question: And the solubility ([1]; CPME slurry supernatant, 2 °C, organic solvent or mixture, CPME, 2-8° C., solid Form B)?
Answer: The solubility was 25 mg/mL (≈ 40.8 mM).

Question: And the solubility ([1]; CPME slurry supernatant, organic solvent or mixture, CPME, RT, solid Form B)?
Answer: Its solubility is 47 mg/mL (≈ 76.7 mM).

Question: What about the solubility ([1]; EtOAc/heptane 40/60 slurry supernatant, 2 °C, organic solvent or mixture, EtOAc/heptane 40/60, 2-8° C., solid Form B) of the same molecule?
Answer: Its solubility is 6 mg/mL (≈ 9.79 mM).

Question: What about the solubility ([1]; EtOAc/heptane 40/60 slurry supernatant, 35 °C, organic solvent or mixture, EtOAc/heptane 40/60, solid Form B) of the same molecule?
Answer: Its solubility is 34 mg/mL (≈ 55.5 mM).

Question: What about the solubility ([1]; EtOAc/heptane 40/60 slurry supernatant, organic solvent or mixture, EtOAc/heptane 40/60, RT, solid Form B) of the same molecule?
Answer: Its solubility is 27 mg/mL (≈ 44.1 mM).

Question: And the solubility ([1]; EtOH slurry supernatant, 2 °C, organic solvent or mixture, EtOH, 2-8° C., with solvent replacement, solid Form B)?
Answer: The solubility was 3 mg/mL (≈ 4.9 mM).

Question: What about the solubility ([1]; EtOH slurry supernatant, organic solvent or mixture, EtOH, RT, with solvent replacement (a), starting material mixture of Form A/Form B, solid Form B) of the same molecule?
Answer: Its solubility is 7 mg/mL (≈ 11.4 mM).

Question: What about the solubility ([1]; EtOH slurry supernatant, organic solvent or mixture, EtOH, RT, with solvent replacement, solid Form B) of the same molecule?
Answer: Its solubility is 7 mg/mL (≈ 11.4 mM).

Question: What about the solubility ([1]; IPA slurry supernatant, 45 °C, organic solvent or mixture, IPA, solid Form B) of the same molecule?
Answer: Its solubility is 44 mg/mL (≈ 71.8 mM).

Question: What about the solubility ([1]; IPA slurry supernatant, organic solvent or mixture, IPA, RT, with solvent replacement, solid Form B) of the same molecule?
Answer: The solubility was 4 mg/mL (≈ 6.53 mM).

Question: What about the solubility ([1]; IPrOAc slurry supernatant, 35 °C, organic solvent or mixture, IPrOAc, solid Form B) of the same molecule?
Answer: The solubility was 232 mg/mL (≈ 379 mM).

Question: What about the solubility ([1]; IPrOAc slurry supernatant, organic solvent or mixture, IPrOAc, RT, solid Form B) of the same molecule?
Answer: The solubility was 93 mg/mL (≈ 152 mM).

Question: And the solubility ([1]; MIBK slurry supernatant, 2 °C, organic solvent or mixture, MIBK, 2-8° C., solid Form B)?
Answer: Its solubility is 128 mg/mL (≈ 209 mM).

Question: And the solubility ([1]; MIBK slurry supernatant, 35 °C, organic solvent or mixture, MIBK, solid Form B)?
Answer: The solubility was 277 mg/mL (≈ 452 mM).

Question: What about the solubility ([1]; MIBK slurry supernatant, organic solvent or mixture, MIBK, RT, solid Form B) of the same molecule?
Answer: The solubility was 137 mg/mL (≈ 224 mM).

Question: What about the solubility ([1]; MIBK/heptane 40/60 slurry supernatant, organic solvent or mixture, MIBK/heptane 40/60, RT, solid Form B) of the same molecule?
Answer: Its solubility is 15 mg/mL (≈ 24.5 mM).

Question: And the solubility ([1]; MTBE slurry supernatant, organic solvent or mixture, MTBE, RT, solid Form B)?
Answer: The solubility was 34 mg/mL (≈ 55.5 mM).

Question: And the solubility ([1]; MeOH slurry supernatant, 2 °C, organic solvent or mixture, MeOH, 2-8° C., with solvent replacement, solid Form B)?
Answer: The solubility was 6 mg/mL (≈ 9.79 mM).

Question: What about the solubility ([1]; MeOH slurry supernatant, organic solvent or mixture, MeOH, Freezer, solid Form B + small additional peaks) of the same molecule?
Answer: Its solubility is 5 mg/mL.

Question: And the solubility ([1]; MeOH slurry supernatant, organic solvent or mixture, MeOH, RT, with solvent replacement, solid Form B)?
Answer: The solubility was 13 mg/mL (≈ 21.2 mM).

Question: And the solubility ([1]; THF/cyclohexane 30/70 slurry supernatant, 2 °C, organic solvent or mixture, THF/cyclohexane 30/70, 2-8° C., solid Form B)?
Answer: The solubility was 55 mg/mL (≈ 89.8 mM).

Question: What about the solubility ([1]; THF/cyclohexane 30/70 slurry supernatant, organic solvent or mixture, THF/cyclohexane 30/70, RT, solid Form B) of the same molecule?
Answer: Its solubility is 370 mg/mL (≈ 604 mM).

Question: What about the “XRPD Results/observations” value ([2]; ACN/water 50/50, Aw 0.90, RT, start Form A, ~2 weeks slurry) of the same molecule?
Answer: Its value is “Form B”.

Question: What about the “XRPD Results/observations” value ([2]; CPME, 2-8° C., start Form A, ~2 weeks slurry) of the same molecule?
Answer: Its value is “Form B”.

Question: And the “XRPD Results/observations” value ([2]; CPME, RT, start Form A, ~2 weeks slurry)?
Answer: The value was “Form B”.

Question: And the “XRPD Results/observations” value ([2]; EtOAc/heptane 40/60, 2-8° C., start Form A, ~2 weeks slurry)?
Answer: Its value is “Form B”.

Question: What about the “XRPD Results/observations” value ([2]; EtOAc/heptane 40/60, 35° C., start Form A, ~2 weeks slurry) of the same molecule?
Answer: The value was “Form B”.

Question: What about the “XRPD Results/observations” value ([2]; EtOAc/heptane 40/60, RT, start Form A, ~2 weeks slurry) of the same molecule?
Answer: The value was “Form B”.

Question: And the “XRPD Results/observations” value ([2]; EtOH, 2-8° C., with solvent replacement, start Form A)?
Answer: The value was “Form B”.

Question: And the “XRPD Results/observations” value ([2]; EtOH, 45° C. (a), starting material mixture of Form A/Form B)?
Answer: The value was “Yellow gel”.

Question: What about the “XRPD Results/observations” value ([2]; EtOH, 45° C., start Form A) of the same molecule?
Answer: The value was “Yellow solution,”.

Question: What about the “XRPD Results/observations” value ([2]; EtOH, RT, with solvent replacement (a), starting material mixture of Form A/Form B) of the same molecule?
Answer: The value was “Form B”.

Question: And the “XRPD Results/observations” value ([2]; EtOH, RT, with solvent replacement, start Form A)?
Answer: Its value is “Form B”.

Question: What about the “XRPD Results/observations” value ([2]; IPA, 45° C., start Form A) of the same molecule?
Answer: Its value is “Form B”.

Question: And the “XRPD Results/observations” value ([2]; IPA, RT, with solvent replacement, start Form A)?
Answer: Its value is “Form B”.

Question: What about the “XRPD Results/observations” value ([2]; IPrOAc, 35° C., start Form A) of the same molecule?
Answer: The value was “Form B”.

Question: What about the “XRPD Results/observations” value ([2]; IPrOAc, RT, start Form A) of the same molecule?
Answer: Its value is “Form B”.

Question: What about the “XRPD Results/observations” value ([2]; MIBK/heptane 40/60, RT, start Form A) of the same molecule?
Answer: Its value is “Form B”.

Question: And the “XRPD Results/observations” value ([2]; MIBK, 2-8° C., start Form A)?
Answer: The value was “Form B”.

Question: What about the “XRPD Results/observations” value ([2]; MIBK, 35° C., start Form A) of the same molecule?
Answer: Its value is “Form B”.

Question: And the “XRPD Results/observations” value ([2]; MIBK, RT, start Form A)?
Answer: The value was “Form B”.

Question: And the “XRPD Results/observations” value ([2]; MTBE, RT, start Form A)?
Answer: Its value is “Form B”.

Question: What about the “XRPD Results/observations” value ([2]; MeOH, 2-8° C., with solvent replacement, start Form A) of the same molecule?
Answer: The value was “Form B”.

Question: What about the “XRPD Results/observations” value ([2]; MeOH, 45° C., start Form A) of the same molecule?
Answer: Its value is “Orange gel”.

Question: What about the “XRPD Results/observations” value ([2]; MeOH, Freezer, start Form A) of the same molecule?
Answer: The value was “Form B + small”.

Question: And the “XRPD Results/observations” value ([2]; MeOH, RT, with solvent replacement, start Form A)?
Answer: The value was “Form B”.

Question: And the “XRPD Results/observations” value ([2]; THF/cyclohexane 30/70, 2-8° C., start Form A)?
Answer: Its value is “Form B”.

Question: And the “XRPD Results/observations” value ([2]; THF/cyclohexane 30/70, RT, start Form A)?
Answer: Its value is “Form B”.

Question: And the “XRPD Results/observations” value ([2]; Water, 70° C., start Form A)?
Answer: The value was “Orange gel after”.

Question: What about the “XRPD Results/observations” value ([2]; Water, RT, start Form A) of the same molecule?
Answer: The value was “Form A”.

Question: For Cc1ccc(S(=O)(=O)OCCOCCOCCOc2ccc(/C=C/c3ccc(N(C)C(=O)OC(C)(C)C)cc3)cn2)cc1 [Form A], which “Form change on slurrying in a variety of solvent systems” value ([2]; all solvent systems tested between 2-8° C. and 45° C.) is on record?
Answer: The value was “conversion to Form B”.

Question: Which results are given for Cc1ccc(S(=O)(=O)OCCOCCOCCOc2ccc(/C=C/c3ccc(N(C)C(=O)OC(C)(C)C)cc3)cn2)cc1 [Form B]?
Answer: Relative thermodynamic stability from DSC (heat-of-fusion rule) [3]: more stable than Form A; Thermodynamic stability from slurry experiments ([2]; between 2-8° C. and 45° C.): thermodynamically the more stable form
